US3969385A, “Ethyl 10-methoxy-3,7,11-trimethyldodeca-2,4-dienoate” (Zoecon Corporation, priority 1974, dated 1976)

Key:
Format in all cases: in vivo
[1] = system: Greater Wax Moth (Galleria mellonella) pupae; experiment: Greater Wax Moth (Galleria mellonella) pupae, retention of pupal characters (graded-response score); conditions: for ID50: Galleria mellonella pupae <24 h old, 1 μl acetone solution applied to mouth-parts, scored after 10 days at 31°, 50% effect level; for Galleria ID50: Table 1 summary
Experimental: Greater Wax Moth (Galleria mellonella) pupae less than 24-hours old were collected after mature larvae from a mass colony were allowed to pupate in glass tubes treated with Siliclad solution (modification of a technique described by De Wilde et al., 1968) and then freed of the cocoon with a dilute Chlorox solution. Starvation of mature larvae was employed to produce highly synchronous pupation. One microliter of acetone solution containing 100, 10, 1, 0.1, 0.01, or 0.001μg of compound was applied to the mouth-parts of each test pupa. In each test series, the control pupae were treated only with 1 microliter of acetone. Treated pupae were allowed to develop for 10 days at 31° and then scored for both retention of pupal characters and adult emergence. For the retention of pupal characters, the following scoring system was used: 0=normal adult; 1=minor pupal rudimentary mandibles only; 2=as in 1, but also pupal cuticle patches at the base of the proboscis; 3=extensive pupal cuticle formation at base of proboscis, slight pupal characters in intersegmental membranes in legs; 4=proboscis entirely pupal, larger than normal, legs with extensive pupal zones; 5=merging pupal bands on legs, specimen with only a few adult setae, essentially "a second pupa."
The graded-response score was calculated as a percentage of the maximum attainable (n×5) and plotted against the dose on semilogarithmic paper. The ID50 dose is taken from the intersection of this plotted line with the 50% effect level.

[2] = system: Tobacco budworm (Heliothis virescens) larvae; experiment: Tobacco budworm (Heliothis virescens) larvae, diet test, morphogenetic scoring; conditions: for ID50: Heliothis virescens unfed first instar larvae, compound mixed in diet, 25°, 16 hr photophase; for Heliothis ID50: Table 1 summary, in diet
Experimental: Tobacco budworm (Heliothis virescens) larvae were reared in mass culture on a modified Van der Zandt artificial diet based on agar, lima beans, split peas, torula yeast plus vitamins, minerals and bacteriostatic additives. Compounds to be tested were mixed as acetone solutions with this diet while it was still warm and not yet solidified (7.5 ml. of medium in 15 ml. tubes). Unfed first instar larvae were collected from the mass rearing and distributed in the glass tubes (one larva per tube, 15 tubes per dose level). The tubes with larvae were then capped with a firm cotton plug and placed on racks in a culture room at 25° and 16 hr photophase (low intensity fluorescent light). The normal interval until pupation under these conditions was ca. 16 days.
Individual specimens were preserved in ethanol within a few days after pupation and stored until the entire series was thus preserved. The test results were then evaluated with the following scoring system: 0= normal pupa; 1=pupa of normal shape and appearance except for very minor abnormalities such as minute rudiments of larval mouthparts, larval tubercles, etc. The ultimate viability of these pupa was not investigated; 2=unviable intermediates between larvae and pupae ranging from almost perfect supernumerary larval instars (frequently with some pupal cuticle on the antennae only) to pupae with pronounced prolegs, patches of larval cuticle, etc. […] The results were added and expressed as a percentage of the possible total. ID50 doses were determined by interpolation on semilogarithmic paper. Dead larvae were generally excluded from the score, unless death was obviously a consequence of morphogenetic abnormalities and the specimens could be scored as above.

[3] = system: Philosamia cynthia eggs; experiment: Philosamia cynthia eggs, hatch prevention; conditions: Table 1 summary
Experimental: Philosamia cynthia eggs less than 24-hours old were removed from the colony and placed on black electrical tape, 15 eggs per tape. One microliter of acetone solution containing […] of compound was applied to each egg. The control eggs were treated only with acetone. The eggs were kept at 28°C for 10 days at which time the number of eggs hatched was observed and plotted against the dosed on semilogarithmic paper. The ID50 dose is taken from the intersection of this plotted line with the 50% hatch prevented line.

CCOC(=O)C=C(C)C=CCC(C)CCC(OC)C(C)C (stereo not shown) [ethyl 10-methoxy-3,7,11-trimethyldodeca-2,4-dienoate]
ID50 [1]: 0.0030 μg per pupa
Galleria ID50 [1]: 0.0030 μg/pupa
ID50 [2]: 0.024 parts per million
Heliothis ID50 [2]: 0.024 ppm
Cynthia ID50 [3]: 0.000032 μg/egg

CCOC(=O)C=C(C)C=CCC(C)CCCC(C)(C)OC (stereo not shown) [ethyl 11-methoxy-3,7,11-trimethyldodeca-2,4-dienoate]
ID50 [1]: 0.180 μg per pupa
Galleria ID50 [1]: 0.180 μg/pupa
ID50 [2]: 0.340 parts per million
Heliothis ID50 [2]: 0.340 ppm
Cynthia ID50 [3]: 0.00077 μg/egg
